How the values were obtained:
[1] = maximum tolerated dose (MTD) in rats; type: in vivo; conditions: rat, in vivo, read-out: MTD
From the text: The maximum tolerated dose (MTD) in rats is also listed for each compound.

[2] = tested on: human bladder cells; assay: inhibition of basal human bladder cell growth; type: cell-based; conditions: Homo sapiens

`C=C1/C(=C\C=C2/CCC[C@]3(C)C(C4(CCCC(C)(C)O)CC4)=CCC23)CC(O)C[C@@H]1O` (stereo partly drawn) [1α,25-Dihydroxy-16-ene-20-cyclopropyl-cholecalciferol] showed an MTD [1] of 1 µg/kg and an IC50 [2] of 0.017 µM.

`C=C1/C(=C\C=C2/CCC[C@]3(C)C(C(C)CC#CC(C)(C)O)=CCC23)CC(OC(C)=O)C[C@@H]1OC(C)=O` (stereo partly drawn) [1,3-Di-O-acetyl-1,25-dihydroxy-16-ene-23-yne-cholecalciferol] showed an MTD [1] of 10 µg/kg and an IC50 [2] of 5.01e-05 µM.

In the case of `C=C1/C(=C\C=C2/CCC[C@@]3(C)C2CCC3C(C)CC#CC(C)(C)O)CC(OC(C)=O)C[C@@H]1OC(C)=O` (stereo partly drawn) [1,3-Di-O-acetyl-1,25-dihydroxy-23-yne-cholecalciferol], the MTD [1] is reported as 1 µg/kg and the IC50 [2] is reported as < 10000 µM.

With `CC(=O)OC1C/C(=C/C=C2\CCC[C@@]3(C)C2CCC3C2(C/C=C/C(O)(C(F)(F)F)C(F)(F)F)CC2)C[C@@H](OC(C)=O)C1` (stereo partly drawn) [1,3-Di-O-acetyl-1,25-dihydroxy-20-cyclopropyl-23E-ene-26,27-hexafluoro-19-nor-cholecalciferol] the MTD [1] was 0.3 µg/kg and the IC50 [2] was 0.00158 µM.

Compound `CC(=O)OC1C/C(=C/C=C2\CCC[C@]3(C)C(C(C)CC#CC(C)(C)O)=CCC23)C[C@@H](OC(C)=O)C1` (stereo partly drawn) [1,3-Di-O-Acetyl-1,25-dihydroxy-16-ene-23-yne-19-nor-cholecalciferol] has an MTD [1] of 30 µg/kg and an IC50 [2] of 186 µM.

For `C=C1/C(=C\C=C2/CCC[C@]3(C)C(C(C)C/C=C/C(C)(C)O)=CCC23)CC(OC(C)=O)C[C@@H]1OC(C)=O` (stereo partly drawn) [1,3-Di-O-acetyl-1,25-dihydroxy-16,23E-diene-cholecalciferol], the MTD [1] was 3 µg/kg and the IC50 [2] was 4.17e-06 µM.

For `C=C1/C(=C\C=C2/CCC[C@@]3(C)C2CCC3C2(CCCC(C)(C)O)CC2)CC(OC(C)=O)C[C@@H]1OC(C)=O` (stereo partly drawn) [1,3-Di-O-acetyl-1,25-dihydroxy-20-cyclopropyl-cholecalciferol], the MTD [1] was 30 µg/kg and the IC50 [2] was 0.398 µM.

For `CC(C)(O)CCCC(CCCC(C)(C)O)[C@H]1CC[C@H]2/C(=C/C=C3C[C@@H](O)C[C@H](O)C3)CCC[C@]12C` [1,25-dihydroxy-21-(3-hydroxy-3-methylbutyl)-19-nor-cholecalciferol], the IC50 [2] was 9.77 µM.

With `C=C1/C(=C\C=C2/CCC[C@]3(C)C(C(C)CC#CC(O)(C(F)(F)F)C(F)(F)F)=CCC23)CC(OC(C)=O)C[C@@H]1OC(C)=O` (stereo partly drawn) [1,3-Di-O-acetyl-1,25-dihydroxy-16-ene-23-yne-26,27-hexafluoro-cholecalciferol] the MTD [1] was 10 µg/kg and the IC50 [2] was 0.002 µM.

With `C=C1/C(=C\C=C2/CCC[C@]3(C)C(C4(CC#CC(O)(C(F)(F)F)C(F)(F)F)CC4)=CCC23)CC(O)C[C@@H]1O` (stereo partly drawn) [1α,25-Dihydroxy-16-ene-20-cyclopropyl-23,24-yne-26,27 hexafluoro cholecalciferol] the MTD [1] was 0.3 µg/kg and the IC50 [2] was 3550 µM.

In the case of `C=C1/C(=C\C=C2/CCC[C@]3(C)C(C4(C/C=C/C(O)(C(F)(F)F)C(F)(F)F)CC4)=CCC23)CC(O)C[C@@H]1O` (stereo partly drawn) [1α,25-Dihydroxy-16-ene-20-cyclopropyl-23,24-E-ene-26,27-hexafluoro-cholecalciferol], the MTD [1] is reported as 0.3 µg/kg and the IC50 [2] is reported as 1.58e-05 µM.

Work on `CC(=O)OC1C/C(=C/C=C2\CCC[C@]3(C)C(C(C)CCCC(C)(C)O)=CCC23)C[C@@H](OC(C)=O)C1` (stereo partly drawn) [1,3-Di-O-acetyl-1,25-dihydroxy-16-ene-19-nor-cholecalciferol] yielded an MTD [1] of 3 µg/kg and an IC50 [2] of 0.000631 µM.

With `C=C1/C(=C\C=C2/CCC[C@]3(C)C(C4(C/C=C\C(O)(C(F)(F)F)C(F)(F)F)CC4)=CCC23)CC(O)C[C@@H]1O` (stereo partly drawn) [1α,25-Dihydroxy-16-ene-20-cyclopropyl-23,24-Z-ene-26,27-hexafluoro-cholecalciferol] the MTD [1] was 1 µg/kg and the IC50 [2] was 0.0794 µM.

Work on `C=C1/C(=C\C=C2/CCC[C@]3(C)C(C(C)CCCC(C)(C)O)=CCC23)CC(OC(C)=O)C[C@@H]1OC(C)=O` (stereo partly drawn) [1,3-Di-O-acetyl-1,25-dihydroxy-16-ene-cholecalciferol] yielded an MTD [1] of 1 µg/kg and an IC50 [2] of 0.000224 µM.
